Results from patent publication US6284726A, “Inhibition of angiogenesis by peptide analogs of high molecular weight kininogen domain 5” (Temple University - Of The Commonwealth System of Higher …, priority 2000, dated 2001).

Key:
[1] = test system: HUVEC cells; test: CyQUANT proliferation assay of bFGF-stimulated HUVEC; format: cell-based, human; conditions: 10 ng/ml bFGF; for Proliferation % Inhibition: 48 hours
Experimental: Cell proliferation was determined by using CyQUANT cell proliferation assay kit from Molecular Probes (catalog #C-7026).
HUVEC cells (50,000/well) in a 96 well microtiter plate were stimulated with 10 ng/ml bFGF in serum-free, M199 growth medium with or without HK peptide for 48 hours at 37° C. in a CO2 incubator. Cells were washed with serum-free medium and frozen at -40° C. Frozen cells were thawed and lysed with a lysis buffer containing the CyQUANT GR dye. Fluorescence was measured using a Cytofluor II Fluorescence Multi-well plate reader with excitation 485 nm and emission with 530 nm.
The percent inhibition of proliferation at a specific peptide concentration was determined for some peptides. For other peptides, an IC50 was calculated from a curve plotting inhibitor concentration versus percent inhibition over a inhibition range of ten to ninety percent inhibition.

[2] = test system: chorioallantoic membrane (CAM) of embryonated chicken eggs; test: In ovo chick chorioallantoic membrane (CAM) angiogenesis assay; format: in vivo; conditions: for inhibition of bFGF-stimulated angiogenesis (blood vessel branch points): bFGF-saturated filter disc on CAM, peptide 0-25 μg in 25 μl saline, 0.27 μM, applied 24 hours later
From the text: New vessels, quantified by blood vessel branching, occurred in response to bFGF, VEGF, or a combination of both. Accordingly, ten day old embryonated chicken eggs were candled to illuminate blood vessels under the shell. An area with a minimum of small blood vessel was identified. The chorioallantoic membrane (CAM) was dropped away from the egg shell in this area by grinding a small hole in the mineralized shell and applying pressure to the underlying inner shell membrane. This caused an air pocket to shift from the wide end of the egg to the identified area and forced a circular region of the CAM approximately 2 cm in diameter to drop away from the shell. A window was cut in the egg shell. A cortisone acetate pre-treated filter disc 5 mm in diameter that was saturated in 1 μg/mi bFGF, a combination of bFGF and VEGF, or saline and was placed on the CAM. The window in the shell was sealed with adhesive tape and the egg was incubated for four days. Peptide GST-SEQ ID NO:10 (0-25 μg in 25 μI saline; 0.27 μM) was applied to the saturated filter 24 hours later and was applied to the stimulated CAM. The CAM was then harvested on the fourth day of stimulation. Data were evaluated in terms of average number of blood vessel branch points per treatment group as well as percent of control using a video camera attached to a personal computer. Under the conditions of the assay, peptide GST-SEQ ID NO:10 inhibited bFGF-stimulated angiogenesis by 97% and bFGF/VEGF-stimulated angiogenesis by 94%. There was no inhibition of bFGF-stimulated angiogenesis by GST alone (<10% inhibition).

[3] = test system: HUVECs; test: Transwell migration of endothelial cells to vitronectin; format: cell-based, human; conditions: 0.27 μM; four hours at 37° C.
Experimental: The lower side of 8 μm pore transwell inserts (Costar, Inc.) were coated with 2 μg/ml of vitronectin for one hour and blocked with 2% bovine serum albumin in phosphate buffered saline for one hour. The inserts were then placed into 24 well culture dishes containing 500 μl migration buffer in the lower chamber. Twenty-five thousand HUVECs in 50 μl of migration buffer were added to the upper chamber of duplicate inserts containing 50 μl of a solution of 50 μg/ml GST-SEQ ID NO. 10 peptide in migration buffer (Herpes buffered M199 medium containing 1% BSA, […], […] and 0.2 μM MnCl2) or migration buffer alone. Cells were allowed to migrate from the upper to the lower chamber for four hours at 37° C. Nonmigratory cells were removed from the upper surface by wiping the upper side with an absorbent tip. Cells which migrated to the lower side of the transwell insert were then fixed for 15 minutes with 3.7% paraformaldehyde in phosphate buffered saline and stained with a 2% crystal violet solution. After extensive water washing to remove excess crystal violet, the number of cells which had migrated were counted in three representative high power (200X) fields per inset.

## GST-Glu(448)-Ser(626) [GST-SEQ ID NO: 12]
[1]; peptide conc. 0.35 μM
  Proliferation % Inhibition: 65%

## GST-Lys(420)-Ser(513) [GST-SEQ ID NO: 10]
[1]; serum-free M199, 48 hours, read-out: IC50 (inhibition of endothelial cell proliferation)
  IC50: < 30 nM
[1]; peptide conc. 0.27 μM
  Proliferation % Inhibition: 100%
[2]; bFGF plus GST fusion peptide, CAM
  inhibition of bFGF-induced angiogenesis, as seen in FIG. 1D (in words): substantial inhibition
[2]; harvested on fourth day
  inhibition of bFGF-stimulated angiogenesis (blood vessel branch points): 97%
[2]; filter disc with combination of bFGF and VEGF on CAM, peptide 0.27 μM applied 24 hours later, harvested on fourth day
  inhibition of bFGF/VEGF-stimulated angiogenesis (blood vessel branch points): 94%
[3]
  inhibition of HUVEC migration to vitronectin: 100%

## GST-His(441)-Ser(626) [GST-SEQ ID NO: 8]
[1]; peptide conc. 0.39 μM
  Proliferation % Inhibition: 100%

## GST-Lys(420)-Asp(474) [GST-SEQ ID NO: 5]
[1]; peptide conc. 0.36 μM
  Proliferation % Inhibition: 94%

## glutathione-S-transferase [GST, reference compound]
[2]; harvested on fourth day
  inhibition of bFGF-stimulated angiogenesis (blood vessel branch points): < 10%
